Results on 7 compounds are retold here after US20260201008A1, “SECRETIN-DERIVED GLP1R SELECTIVE AGONISTS” (GUBRA A/S, priority 2023, published 2026).

A short description of data set [1]: Turbidity of crude library peptides (absorbance at 600 nm). The data set is classed as physicochemical. Conditions: Physical stability of peptides. A digest of the protocol:
(§1)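 Crude peptides at 267 μM in 50 mM sodium acetate pH 4.0 or 50 mM sodium phosphate pH 7.0, pre-incubated 1-2 h at room temperature, then 4 μM final ThT added. Turbidity read first as A600. ThT fluorescence (ex 450/em 480 nm) read every 10 min for 72 h at 40° C, with 5 min shaking before each read; fibril formation = average emission.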

The nature of data set [2]: Fibril formation of crude library peptides (Thioflavin T). The note with it: Physical stability of peptides. The data set is classed as physicochemical. Further details: key: average ThT fluorescence emission at 480 nm (ex 450 nm), raw units. A digest of the protocol: as §1
The target of a further data set is GLP1R (Homo sapiens, UniProt P43220). Briefly: hGLP1R potency, cAMP accumulation in CHO-K1 cells stably overexpressing hGLP1R. The data set is classed as cell-based. More on the design: host or cells: CHO-K1. The note with it: for Selectivity: SCTR EC50/GLP1R EC50 ratio; for SCTR EC50/GLP1R EC50 ratio: cAMP accumulation in CHO-K1 cells. A digest of the protocol:
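Thawed cells go straight into buffer containing 0.5 mM IBMX and 0.05% casein, get graded compound doses for 30 min at room temperature, and are then assayed for accumulated cAMP by time-resolved FRET. Human GLP-1(7-36) serves as positive control; EC50 is derived by nonlinear regression.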
(In general: cAMP levels reflect the balance of adenylyl cyclase and phosphodiesterase activity.)

Another data set has as its target SCTR (Homo sapiens, UniProt P47872). The data set is described as follows: hSCTR potency, cAMP accumulation in CHO-K1 cells stably overexpressing hSCTR. The data set is classed as cell-based. More on the design: alternatively Euroscreen ES-712-AF; FAST-0161L; host or cells: CHO-K1. Put shortly:
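Read-out is TR-FRET cAMP detection, recorded one hour after reagent addition, in CHO-K1 cells stably overexpressing hSCTR. Cells in DPBS containing 0.05% casein and 0.5 mM IBMX are exposed to graded peptide doses for 30 min at room temperature, with human secretin as reference agonist.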

Setting [3] is: cAMP accumulation, CHO-K1 cells overexpressing hGLP1R, read-out: pEC50 hGLPR1 (converted).
[4] abbreviates: cAMP accumulation, CHO-K1 cells overexpressing hSCTR, read-out: pEC50 hSCTR (converted).
[5] abbreviates: cAMP accumulation, CHO-K1 cells overexpressing hGLP1R, read-out: hGLP1R pEC50 (converted).
Setting [6] is: selectivity for hGLP1R over hSCTR.
Setting [7] is: cAMP accumulation, CHO-K1 cells overexpressing hSCTR, read-out: hSCTR pEC50 (converted).

Where two headings read alike, the source gives them in different places. Numbered stars: 1 amine (or outer) side, 2 acyl side, 3 side chain; on linkers, the order of the positions; unused ones are H or OH. Square brackets hold non-standard residues; d marks the D form. Side chains are listed from the residue outwards. Peptide text beside a SMILES is read from it. * marks the point of attachment. C20 diacid = O=C(O)CCCCCCCCCCCCCCCCCCC(=O)*; γGlu = O=C(O)[C@H](CCC(=O)[*:2])N[*:1]; AEEA = NCCOCCOCC(=O)O; Aib = CC(C)(N)C(=O)O

SCTR, sequence (P47872 23-440): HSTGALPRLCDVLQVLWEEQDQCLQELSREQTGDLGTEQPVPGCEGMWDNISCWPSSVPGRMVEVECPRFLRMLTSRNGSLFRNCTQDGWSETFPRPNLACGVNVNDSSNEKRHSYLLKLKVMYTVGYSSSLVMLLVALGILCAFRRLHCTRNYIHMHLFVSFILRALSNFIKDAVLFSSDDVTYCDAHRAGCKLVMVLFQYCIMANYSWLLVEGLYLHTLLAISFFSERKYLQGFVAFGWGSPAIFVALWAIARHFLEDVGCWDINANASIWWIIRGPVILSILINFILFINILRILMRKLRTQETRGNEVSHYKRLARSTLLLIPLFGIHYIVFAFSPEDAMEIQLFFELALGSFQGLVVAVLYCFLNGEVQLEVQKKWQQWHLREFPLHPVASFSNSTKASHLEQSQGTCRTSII
GLP1R, sequence (P43220 24-463): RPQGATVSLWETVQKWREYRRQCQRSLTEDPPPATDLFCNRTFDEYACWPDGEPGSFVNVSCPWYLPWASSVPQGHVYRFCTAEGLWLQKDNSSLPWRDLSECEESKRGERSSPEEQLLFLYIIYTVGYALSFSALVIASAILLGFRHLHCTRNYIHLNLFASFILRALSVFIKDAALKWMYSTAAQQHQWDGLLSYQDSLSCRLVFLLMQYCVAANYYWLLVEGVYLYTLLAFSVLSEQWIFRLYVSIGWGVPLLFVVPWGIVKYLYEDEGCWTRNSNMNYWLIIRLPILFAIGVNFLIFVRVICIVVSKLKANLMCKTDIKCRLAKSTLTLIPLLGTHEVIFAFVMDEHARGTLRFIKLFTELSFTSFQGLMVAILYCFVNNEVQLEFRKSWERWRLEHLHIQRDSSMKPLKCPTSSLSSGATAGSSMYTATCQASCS

On to `CC(C)C[C@H](NC(=O)[C@H](Cc1ccccc1)NC(=O)[C@H](CCCNC(=N)N)NC(=O)[C@H](CCC(N)=O)NC(=O)[C@H](C)NC(=O)[C@H](C)NC(=O)[C@H](C)NC(=O)[C@@H](NC(=O)[C@H](CCC(=O)O)NC(=O)[C@H](CCCCNC(=O)COCCOCCNC(=O)COCCOCCNC(=O)CC[C@H](NC(=O)CCCCCCCCCCCCCCCCCCC(=O)O)C(=O)O)NC(=O)[C@H](CC(C)C)NC(=O)[C@@H](NC(=O)[C@H](CO)NC(=O)[C@@H](NC(=O)[C@H](CC(=O)O)NC(=O)[C@H](CO)NC(=O)[C@@H](NC(=O)[C@H](Cc1ccccc1)NC(=O)[C@@H](NC(=O)CNC(=O)[C@H](CCC(=O)O)NC(=O)C(C)(C)NC(=O)[C@@H](N)Cc1c[nH]cn1)[C@@H](C)O)[C@@H](C)O)C(C)C)C(C)C)[C@@H](C)O)C(=O)N[C@@H](CCC(=O)O)C(=O)N[C@@H](Cc1c[nH]cn1)C(=O)N[C@@H](CC(C)C)C(=O)N[C@H](C(N)=O)C(C)C` [compound 62] (H-H[Aib]EGTFTSDVSVLK([AEEA-AEEA-γGlu-C20 diacid])ETAAAQRFLEHLV-NH2), for which the “Turbidity (pH 7)” value in data set [1] is 0.08. In data set [2], this compound showed a Fibril formation of 21979. Besides, the EC50 on GLP1R was 0.1 nM; at SCTR, 2000 nM. In addition, the Selectivity on GLP1R was 18608.

Take `CC(C)C[C@H](NC(=O)[C@H](Cc1ccccc1)NC(=O)[C@H](CCCNC(=N)N)NC(=O)[C@H](CCC(N)=O)NC(=O)[C@@H](NC(=O)[C@H](C)NC(=O)[C@H](C)NC(=O)C(C)(C)NC(=O)[C@H](CCC(=O)O)NC(=O)[C@H](CCCCNC(=O)COCCOCCNC(=O)COCCOCCNC(=O)CC[C@H](NC(=O)CCCCCCCCCCCCCCCCCCC(=O)O)C(=O)O)NC(=O)[C@H](CC(C)C)NC(=O)[C@@H](NC(=O)[C@H](CO)NC(=O)[C@@H](NC(=O)[C@H](CC(=O)O)NC(=O)[C@H](CO)NC(=O)[C@@H](NC(=O)[C@H](Cc1ccccc1)NC(=O)[C@@H](NC(=O)CNC(=O)[C@H](CCC(=O)O)NC(=O)C(C)(C)NC(=O)[C@@H](N)Cc1c[nH]cn1)[C@@H](C)O)[C@@H](C)O)C(C)C)C(C)C)[C@@H](C)O)C(=O)N[C@@H](CCC(=O)O)C(=O)N[C@@H](Cc1c[nH]cn1)C(=O)N[C@@H](CC(C)C)C(=O)N[C@H](C(N)=O)C(C)C` [compound 49] (H-H[Aib]EGTFTSDVSVLK([AEEA-AEEA-γGlu-C20 diacid])E[Aib]AATQRFLEHLV-NH2): the “Turbidity (pH 7)” value in data set [1] is 0.08. Besides, in data set [2], the Fibril formation came out at 11371. The Selectivity at GLP1R amounted to 5429. Besides, the EC50 on GLP1R (setting [3]) is 0.02 nM; on SCTR (setting [4]) it was 126 nM.

`CC(C)C[C@H](NC(=O)[C@H](Cc1ccccc1)NC(=O)[C@H](CCCNC(=N)N)NC(=O)[C@H](CCC(N)=O)NC(=O)[C@@H](NC(=O)[C@H](C)NC(=O)[C@H](C)NC(=O)C(C)(C)NC(=O)[C@H](CCC(=O)O)NC(=O)[C@H](CCCCNC(=O)COCCOCCNC(=O)COCCOCCNC(=O)CC[C@H](NC(=O)CCCCCCCCCCCCCCCCCCC(=O)O)C(=O)O)NC(=O)[C@H](CC(C)C)NC(=O)[C@H](CCC(=O)O)NC(=O)[C@H](CO)NC(=O)[C@@H](NC(=O)[C@H](CC(=O)O)NC(=O)[C@H](CO)NC(=O)[C@@H](NC(=O)[C@H](Cc1ccccc1)NC(=O)[C@@H](NC(=O)CNC(=O)[C@H](CCC(=O)O)NC(=O)C(C)(C)NC(=O)[C@@H](N)Cc1c[nH]cn1)[C@@H](C)O)[C@@H](C)O)C(C)C)[C@@H](C)O)C(=O)N[C@@H](CCC(=O)O)C(=O)N[C@@H](Cc1c[nH]cn1)C(=O)N[C@@H](CC(C)C)C(=O)N[C@H](C(N)=O)C(C)C` [compound 82] (H-H[Aib]EGTFTSDVSELK([AEEA-AEEA-γGlu-C20 diacid])E[Aib]AATQRFLEHLV-NH2): the “Turbidity (pH 7)” value in data set [1] is recorded as 0.08. Moreover, the Fibril formation in data set [2] is listed as 8549. The Selectivity on GLP1R was 11264. Also, the EC50 was 0.01 nM on GLP1R (setting [3]) and 100 nM at SCTR (setting [4]).

In the case of `CC[C@H](C)[C@H](NC(=O)[C@H](Cc1ccccc1)NC(=O)[C@H](CCCNC(=N)N)NC(=O)[C@H](CCC(N)=O)NC(=O)[C@H](CC(C)C)NC(=O)[C@H](C)NC(=O)[C@H](C)NC(=O)CNC(=O)[C@H](CCC(=O)O)NC(=O)[C@H](CC(C)C)NC(=O)[C@H](CC(C)C)NC(=O)CNC(=O)[C@H](CO)NC(=O)[C@H](Cc1c[nH]c2ccccc12)NC(=O)[C@H](CC(=O)O)NC(=O)[C@H](CO)NC(=O)[C@@H](NC(=O)[C@H](Cc1ccccc1)NC(=O)[C@@H](NC(=O)CNC(=O)[C@H](CCC(=O)O)NC(=O)C(C)(C)NC(=O)[C@@H](N)Cc1c[nH]cn1)[C@@H](C)O)[C@@H](C)O)C(=O)N[C@@H](CCC(N)=O)C(=O)N[C@@H](Cc1c[nH]c2ccccc12)C(=O)N[C@@H](CC(C)C)C(=O)N[C@H](C(N)=O)C(C)C` [compound 187] (H-H[Aib]EGTFTSDWSGLLEGAALQRFIQWLV-NH2), in data set [1], the “Turbidity (pH 7)” value is reported as 0.62. The compound further returned a Fibril formation in data set [2] of 13388. Further, the EC50 at GLP1R (cAMP accumulation, CHO-K1 cells stably overexpressing hGLP1R, read-out: hGLP1R potency (pEC50) (converted)) was 0.0398 nM; on SCTR (cAMP accumulation, CHO-K1 cells stably overexpressing hSCTR, read-out: hSCTR potency (pEC50) (converted)) it was 50.1 nM. Further, the “SCTR EC50/GLP1R EC50 ratio” value at GLP1R (selectivity ratio, hSCTR vs hGLP1R) is listed as 1437.

Take `CC(C)C[C@H](NC(=O)[C@H](Cc1ccccc1)NC(=O)[C@H](CCCNC(=N)N)NC(=O)[C@H](CCC(N)=O)NC(=O)[C@H](CCC(=O)O)NC(=O)C(C)(C)NC(=O)[C@H](C)NC(=O)[C@H](CCC(=O)O)NC(=O)[C@H](CCC(=O)O)NC(=O)[C@H](CCCCNC(=O)COCCOCCNC(=O)COCCOCCNC(=O)CC[C@H](NC(=O)CCCCCCCCCCCCCCCCCCC(=O)O)C(=O)O)NC(=O)[C@H](CC(C)C)NC(=O)[C@H](Cc1ccc(O)cc1)NC(=O)[C@H](CO)NC(=O)[C@@H](NC(=O)[C@H](CC(=O)O)NC(=O)[C@H](CO)NC(=O)[C@@H](NC(=O)[C@H](Cc1ccccc1)NC(=O)[C@@H](NC(=O)CNC(=O)[C@H](CCC(=O)O)NC(=O)C(C)(C)NC(=O)[C@@H](N)Cc1c[nH]cn1)[C@@H](C)O)[C@@H](C)O)C(C)C)C(=O)N[C@@H](CCC(=O)O)C(=O)N[C@@H](Cc1c[nH]cn1)C(=O)N[C@@H](CC(C)C)C(=O)N[C@H](C(N)=O)C(C)C` [compound 150] (H-H[Aib]EGTFTSDVSYLK([AEEA-AEEA-γGlu-C20 diacid])EEA[Aib]EQRFLEHLV-NH2): in data set [1], the “Turbidity (pH 7)” value was found to be 0.08. In data set [2], the Fibril formation is recorded as 2766. In addition, the EC50 at GLP1R (setting [5]) is 0.00501 nM; on SCTR (setting [7]), 3160 nM. Also, the “SCTR EC50/GLP1R EC50 ratio” value at GLP1R (setting [6]) is listed as 693266.

`CC[C@H](C)[C@H](NC(=O)[C@H](Cc1ccccc1)NC(=O)[C@H](CCCNC(=N)N)NC(=O)[C@H](CCC(N)=O)NC(=O)[C@H](CC(C)C)NC(=O)[C@H](C)NC(=O)[C@H](C)NC(=O)CNC(=O)[C@H](CCC(=O)O)NC(=O)[C@H](CC(C)C)NC(=O)[C@H](CC(C)C)NC(=O)[C@H](CCCNC(=N)N)NC(=O)[C@H](CO)NC(=O)[C@@H](NC(=O)[C@H](CC(=O)O)NC(=O)[C@H](CO)NC(=O)[C@@H](NC(=O)[C@H](Cc1ccccc1)NC(=O)[C@@H](NC(=O)CNC(=O)[C@H](CCC(=O)O)NC(=O)C(C)(C)NC(=O)[C@@H](N)Cc1c[nH]cn1)[C@@H](C)O)[C@@H](C)O)C(C)C)C(=O)N[C@@H](CCC(N)=O)C(=O)N[C@@H](Cc1c[nH]c2ccccc12)C(=O)N[C@@H](CC(C)C)C(=O)N[C@H](C(N)=O)C(C)C` [compound 178] (H-H[Aib]EGTFTSDVSRLLEGAALQRFIQWLV-NH2): the “Turbidity (pH 7)” value in data set [1] is on record as 0.77. The Fibril formation in data set [2] was 29072. The EC50 at GLP1R (setting [5]) was 0.0631 nM; at SCTR (setting [7]) it was 63.1 nM. Besides, the “SCTR EC50/GLP1R EC50 ratio” value at GLP1R (setting [6]) is recorded as 891.

As to `CC[C@H](C)[C@H](NC(=O)[C@H](CC(=O)O)NC(=O)[C@H](CO)NC(=O)[C@@H](NC(=O)[C@H](Cc1ccccc1)NC(=O)[C@@H](NC(=O)CNC(=O)[C@H](CCC(=O)O)NC(=O)C(C)(C)NC(=O)[C@@H](N)Cc1c[nH]cn1)[C@@H](C)O)[C@@H](C)O)C(=O)N[C@@H](CO)C(=O)NCC(=O)N[C@@H](CC(C)C)C(=O)N[C@@H](CC(C)C)C(=O)N[C@@H](CCC(=O)O)C(=O)NCC(=O)N[C@@H](C)C(=O)N[C@@H](C)C(=O)N[C@@H](CC(C)C)C(=O)N[C@@H](CCC(N)=O)C(=O)N[C@@H](CCCNC(=N)N)C(=O)N[C@@H](Cc1ccccc1)C(=O)N[C@H](C(=O)N[C@@H](CCC(N)=O)C(=O)N[C@@H](Cc1c[nH]c2ccccc12)C(=O)N[C@@H](CC(C)C)C(=O)N[C@H](C(N)=O)C(C)C)[C@@H](C)CC` [compound 120] (H-H[Aib]EGTFTSDISGLLEGAALQRFIQWLV-NH2), the “Turbidity (pH 7)” value in data set [1] was found to be 0.23. In addition, the Fibril formation in data set [2] came to 4449. Besides, the EC50 at GLP1R (setting [5]) was 0.0501 nM; at SCTR (setting [7]) it was 200 nM. Moreover, the “SCTR EC50/GLP1R EC50 ratio” value at GLP1R (setting [6]) amounted to 3717.
